This passage reports IC50 results from ChEMBL document CHEMBL1201862, “PubChem BioAssay data set” (2004).

The structures appear in SMILES notation. The source made the active and inactive calls. Rule as the data show it, for most assays here: actives have a measured IC50 and inactives only a lower limit.

Holding throughout (format): functional
Assay [1] deals with Tyrosine-protein phosphatase non-receptor type 7 (Homo sapiens, UniProt P35236).
The target in assay [2] is T1, Tyrosine-protein phosphatase non-receptor type 22 (Homo sapiens, UniProt Q9Y2R2).
Assay [3] has as its target T2, High affinity choline transporter 1 (Homo sapiens, UniProt Q9GZV3).
T2 sequence (Q9GZV3 whole entry): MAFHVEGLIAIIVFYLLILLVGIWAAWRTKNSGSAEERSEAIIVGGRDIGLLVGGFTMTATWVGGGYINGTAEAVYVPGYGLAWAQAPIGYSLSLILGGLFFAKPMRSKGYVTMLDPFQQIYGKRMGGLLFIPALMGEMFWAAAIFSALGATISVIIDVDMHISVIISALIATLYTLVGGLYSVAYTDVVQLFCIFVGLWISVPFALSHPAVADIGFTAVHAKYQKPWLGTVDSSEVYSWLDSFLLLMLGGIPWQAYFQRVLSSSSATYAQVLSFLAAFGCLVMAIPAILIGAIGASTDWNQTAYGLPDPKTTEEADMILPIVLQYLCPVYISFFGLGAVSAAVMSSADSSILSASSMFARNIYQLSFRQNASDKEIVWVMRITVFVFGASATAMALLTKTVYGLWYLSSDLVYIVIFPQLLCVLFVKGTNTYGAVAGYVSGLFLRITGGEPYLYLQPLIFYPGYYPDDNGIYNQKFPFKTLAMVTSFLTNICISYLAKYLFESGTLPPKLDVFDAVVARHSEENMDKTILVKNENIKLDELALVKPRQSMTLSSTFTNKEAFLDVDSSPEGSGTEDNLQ
Put plainly: CHT inhibitors, dose response, cell-based, 5-point CRC, membrane potential dye (AID 504840).

The target in assay [4] is T1, Tyrosine-protein phosphatase non-receptor type 22. This is another data set of the same source.

T1 sequence (Q9Y2R2 whole entry): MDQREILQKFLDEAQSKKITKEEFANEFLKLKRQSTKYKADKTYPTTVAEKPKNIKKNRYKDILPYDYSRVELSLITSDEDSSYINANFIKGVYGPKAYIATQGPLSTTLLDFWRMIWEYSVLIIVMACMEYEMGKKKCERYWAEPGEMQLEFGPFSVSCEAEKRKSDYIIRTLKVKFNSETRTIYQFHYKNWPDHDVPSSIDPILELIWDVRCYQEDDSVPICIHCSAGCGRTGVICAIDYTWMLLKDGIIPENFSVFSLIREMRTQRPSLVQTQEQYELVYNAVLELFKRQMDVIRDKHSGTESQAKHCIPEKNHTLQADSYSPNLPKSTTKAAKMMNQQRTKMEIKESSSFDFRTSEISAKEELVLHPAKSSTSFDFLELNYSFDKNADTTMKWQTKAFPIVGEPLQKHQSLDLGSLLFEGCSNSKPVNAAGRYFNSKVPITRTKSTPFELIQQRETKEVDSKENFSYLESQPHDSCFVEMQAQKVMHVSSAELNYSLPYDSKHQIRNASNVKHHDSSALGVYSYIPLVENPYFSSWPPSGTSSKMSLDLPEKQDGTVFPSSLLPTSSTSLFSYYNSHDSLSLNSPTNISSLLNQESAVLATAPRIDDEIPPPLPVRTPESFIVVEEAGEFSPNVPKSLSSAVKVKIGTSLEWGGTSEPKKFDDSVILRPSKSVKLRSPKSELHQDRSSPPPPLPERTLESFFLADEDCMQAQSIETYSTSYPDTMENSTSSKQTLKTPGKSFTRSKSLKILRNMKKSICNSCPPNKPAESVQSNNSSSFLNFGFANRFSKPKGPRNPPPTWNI
Tyrosine-protein phosphatase non-receptor type 7, sequence (P35236 whole entry): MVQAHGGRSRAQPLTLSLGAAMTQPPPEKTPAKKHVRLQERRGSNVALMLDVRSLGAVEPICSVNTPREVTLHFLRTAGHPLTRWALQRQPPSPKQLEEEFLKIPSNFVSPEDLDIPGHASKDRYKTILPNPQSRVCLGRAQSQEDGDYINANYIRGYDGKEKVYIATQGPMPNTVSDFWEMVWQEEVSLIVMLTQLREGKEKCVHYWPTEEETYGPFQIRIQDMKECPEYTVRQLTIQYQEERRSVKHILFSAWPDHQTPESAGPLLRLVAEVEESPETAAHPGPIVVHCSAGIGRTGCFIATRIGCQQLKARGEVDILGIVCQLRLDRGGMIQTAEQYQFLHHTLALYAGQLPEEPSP

Regarding `Cc1occc1C(=O)NNS(=O)(=O)c1ccc(Cl)cc1`, the IC50 (as a rule, the concentration that gives 50% inhibition) is > 79.4 µM (inactive) in assay [1], > 79.4 µM (inactive) in assay [2], 13.5 µM (active) in assay [3] and > 79.4 µM (inactive) in assay [4].
